Positions of bridges follow the written chain, without caps; N, C: chain ends. Residues, ends and D or L forms follow the SMILES beside them.
Key:
Solubility = assay type: physicochemical
sepsis = conditions: antibiotic-treated control group; cited from earlier work

Row | Compound | solubility (Solubility) [mg/mL] | water solubility and bioavailability relative to SN50 peptide (Solubility; vs first generation NTCI (SN50 peptide)) [times] | survival with meropenem alone (sepsis) [%]
1 | CSCC[C@@H]1NC(=O)[C@H](CC(C)C)NC(=O)[C@H](CCCCN)NC(=O)[C@H](CCC(N)=O)NC(=O)[C@H](CCCNC(=N)N)NC(=O)[C@H](CCCCN)NC(=O)[C@H](CCCNC(=N)N)NC(=O)[C@H](CCC(N)=O)NC(=O)[C@H](C(C)C)NC(=O)[C@@H](NC(=O)[C@@H]2CCCN2C(=O)[C@H](C)NC(=O)[C@H](CC(C)C)NC(=O)[C@H](CC(C)C)NC(=O)[C@H](C)NC(=O)[C@H](CC(C)C)NC(=O)[C@H](CC(C)C)NC(=O)[C@@H](NC(=O)[C@H](C)NC(=O)[C@@H]2CCCN2C(=O)[C@H](CC(C)C)NC(=O)[C@H](CC(C)C)NC(=O)[C@H](C)NC(=O)[C@@H](NC(=O)[C@H](C)NC(=O)[C@H](C)N)C(C)C)C(C)C)CSSC[C@@H](C(=O)O)NC(=O)[C@@H]2CCCN2C1=O [cSN50.1] (H-AAVALLPAVLLALLAPCVQRKRQKLMPC-OH; disulfide 17-28) | ≥ 100 | 8 | 
2 | C[C@@H](O)[C@H]1C(=O)N2C(C(=O)O)=C(S[C@@H]3CN[C@H](C(=O)N(C)C)C3)[C@H](C)[C@H]12 [meropenem] |  |  | 30

From patent publication US20260317388A1, “SELECTIVE NUCLEAR BLOCKADE FOR THE TREATMENT OF SEPSIS” (priority 2023, published 2026)
